Reference: EP2257297B1, “COMPOUNDS FOR USE IN THE TREATMENT OF ACNE, SEBORRHOEA AND SEBHORROEIC DERMATITIS, OR FOR REDUCING SEBUM SECRETION” (priority 2008, dated 2009)

target: T1, human MC5R (Homo sapiens, UniProt P33032); assay: Human MC5R radioligand binding assay ([125I] NDP-MSH displacement, hMC5R membranes); settings: not given
T1 construct: purchased Perkin Elmer RBXMC5M400UA
Outline: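 Bound ligand collected by filtration on PEI-soaked GF/A filters and counted. Data fitted to a single-site competition model with fixed Hill coefficient to give EC50.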

T1 sequence (P33032 whole entry): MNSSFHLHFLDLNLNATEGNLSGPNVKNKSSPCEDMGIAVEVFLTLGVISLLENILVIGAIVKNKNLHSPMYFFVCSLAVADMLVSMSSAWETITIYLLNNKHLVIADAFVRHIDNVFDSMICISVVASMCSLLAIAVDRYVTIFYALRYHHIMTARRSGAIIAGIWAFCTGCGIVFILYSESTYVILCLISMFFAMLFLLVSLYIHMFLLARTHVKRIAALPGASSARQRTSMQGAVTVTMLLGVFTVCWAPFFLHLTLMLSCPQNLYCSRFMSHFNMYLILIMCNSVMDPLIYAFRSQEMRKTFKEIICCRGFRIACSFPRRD

Row | IC50 [µM] | Structure (SMILES)
1 | < 10 | CC[C@@H](CN1CC[C@@H](CNC(=O)c2ccc(Cl)c(Cl)c2)N[C@@H](CCN)C1=O)C(C)C (racemic) [Compound 489, N-(((3S,5S)-3-(2-aminoethyl)-1-((R)-2-ethyl-3-methylbutyl)-2-oxo-1,4-diazepan-5-yl)methyl)-3,4-dichlorobenzamide]

same assay, conditions: hMC5R assay as in Example 102; compounds tested as trifluoroacetate or hydrochloride salts, or as free base

Row | IC50 [µM] | Structure (SMILES)
2 | < 0.1 | CCC(CC)CN1CC[C@@H](CNC(=O)c2ccc(Cl)c(Cl)c2)N[C@@H](CCN2CCCCC2)C1=O [Compound 349, 3,4-dichloro-N-(((3S,5S)-1-(2-ethylbutyl)-2-oxo-3-(2-(piperidin-1-yl)ethyl)-1,4-diazepan-5-yl)methyl)benzamide]
3 | < 0.1 | NCCC[C@@H]1N[C@H](CNC(=O)/C=C/c2ccc(Cl)cc2)CCN(CC(c2ccccc2)c2ccccc2)C1=O [Compound 214, (E)-N-(((3S,5S)-3-(3-aminopropyl)-1-(2,2-diphenylethyl)-2-oxo-1,4-diazepan-5-yl)methyl)-3-(4-chlorophenyl)acrylamide]
4 | < 0.1 | NCC[C@@H]1N[C@H](CNC(=O)/C=C/c2ccc(F)cc2)CCN(CC(c2ccccc2)c2ccccc2)C1=O [Compound 276, (E)-N-(((3S,5S)-3-(2-aminoethyl)-1-(2,2-diphenylethyl)-2-oxo-1,4-diazepan-5-yl)methyl)-3-(4-fluorophenyl)acrylamide]
5 | < 10 | O=C(NCC[C@@H]1CCN(CC(c2ccccc2)c2ccccc2)C(=O)[C@H](CCN2CCCCC2)N1)c1ccccc1 [Compound 311, N-(2-((3S,5R)-1-(2,2-diphenylethyl)-2-oxo-3-(2-(piperidin-1-yl)ethyl)-1,4-diazepan-5-yl)ethyl)benzamide]
6 | < 10 | N=C(N)NCCC[C@@H]1N[C@H](CNC(=O)c2ccc3[nH]nnc3c2)CCN(CC(c2ccccc2)c2ccccc2)C1=O [Compound 150, N-(((3S,5S)-1-(2,2-diphenylethyl)-3-(3-guanidinopropyl)-2-oxo-1,4-diazepan-5-yl)methyl)-1H-benzo[d][1,2,3]triazole-5-carboxamide]
7 | < 0.01 | O=C(NC[C@@H]1CCN(CC(c2ccccc2)c2ccccc2)C(=O)[C@H](CCN2CCCCC2)N1)c1ccc(Cl)c(Cl)c1 [Compound 284, 3,4-dichloro-N-(((3S,5S)-1-(2,2-diphenylethyl)-2-oxo-3-(2-(piperidin-1-yl)ethyl)-1,4-diazepan-5-yl)methyl)benzamide]
8 | < 1 | NCC[C@@H]1N[C@H](CCNC(=O)c2ccc(Cl)c(Cl)c2)CCN(CC(c2ccccc2)c2ccccc2)C1=O [Compound 309, 3,4-dichloro-N-(2-((3S,5R)-1-(2,2-diphenylethyl)-2-oxo-3-(2-aminoethyl)-1,4-diazepan-5-yl)ethyl)benzamide]
9 | < 0.01 | O=C(/C=C/c1ccc(Cl)cc1)NC[C@@H]1CCN(CC(c2ccccc2)c2ccccc2)C(=O)[C@H](CN2CCCCC2)N1 [Compound 279, (E)-3-(4-chlorophenyl)-N-(((3S,5S)-1-(2,2-diphenylethyl)-2-oxo-3-(piperidin-1-ylmethyl)-1,4-diazepan-5-yl)methyl)acrylamide]
10 | < 1 | N#Cc1ccc(/C=C/C(=O)NC[C@@H]2CCN(CC(c3ccccc3)c3ccccc3)C(=O)[C@H](CCCN)N2)cc1 [Compound 234, (E)-N-(((3S,5S)-3-(3-aminopropyl)-1-(2,2-diphenylethyl)-2-oxo-1,4-diazepan-5-yl)methyl)-3-(4-cyanophenyl)acrylamide]
11 | < 10 | NCCCC[C@@H]1N[C@H](CNC(=O)Cc2cccc3ccccc23)CCN(Cc2ccc3ccccc3c2)C1=O [Compound 125, N-(((3S,5S)-3-(4-aminobutyl)-1-(naphthalen-2-ylmethyl)-2-oxo-1,4-diazepan-5-yl)methyl)-2-(naphthalen-1-yl)acetamide]
12 | < 1 | N=C(N)NCCC[C@@H]1N[C@H](CNC(=O)c2ccc(-c3ccccc3)o2)CCN(CC(c2ccccc2)c2ccccc2)C1=O [Compound 179, N-(((3S,5S)-1-(2,2-diphenylethyl)-3-(3-guanidinopropyl)-2-oxo-1,4-diazepan-5-yl)methyl)-5-phenylfuran-2-carboxamide]
13 | < 1 | Cc1ccc(C(=O)NC[C@@H]2CCN(CC(c3ccccc3)c3ccccc3)C(=O)[C@H](CCCN)N2)cc1C [Compound 223, N-(((3S,5S)-3-(3-aminopropyl)-1-(2,2-diphenylethyl)-2-oxo-1,4-diazepan-5-yl)methyl)-3,4-dimethylbenzamide]
14 | < 0.1 | Cc1ccc(/C=C/C(=O)NC[C@@H]2CCN(CC(c3ccccc3)c3ccccc3)C(=O)[C@H](CCCN)N2)cc1 [Compound 219, (E)-N-(((3S,5S)-3-(3-aminopropyl)-1-(2,2-diphenylethyl)-2-oxo-1,4-diazepan-5-yl)methyl)-3-p-tolylacrylamide]
15 | < 1 | N=C(N)NCCC[C@@H]1N[C@H](CNC(=O)CC2CCCCC2)CCN(CC(c2ccccc2)c2ccccc2)C1=O [Compound 147, 2-cyclohexyl-N-(((3S,5S)-1-(2,2-diphenylethyl)-3-(3-guanidinopropyl)-2-oxo-1,4-diazepan-5-yl)methyl)acetamide]
16 | < 0.01 | CNC(=N)NCCC[C@@H]1N[C@H](CNC(=O)c2ccc3ccccc3c2)CCN(CC(c2ccccc2)c2ccccc2)C1=O [Compound 67, N-(((3S,5S)-1-(2,2-diphenylethyl)-3-(3-(3-methylguanidino)propyl)-2-oxo-1,4-diazepan-5-yl)methyl)-2-naphthamide]
17 | < 1 | N=C(N)NCCC[C@@H]1N[C@H](CNC(=O)[C@H]2COc3ccccc3O2)CCN(CC(c2ccccc2)c2ccccc2)C1=O [Compound 168, (R)-N-(((3S,5S)-1-(2,2-diphenylethyl)-3-(3-guanidinopropyl)-2-oxo-1,4-diazepan-5-yl)methyl)-2,3-dihydrobenzo[b][1,4]dioxine-2-carboxamide]
18 | < 0.1 | N=C(N)NCCC[C@@H]1N[C@H](CNC(=O)/C=C/c2cccs2)CCN(CC(c2ccccc2)c2ccccc2)C1=O [Compound 167, (E)-N-(((3S,5S)-1-(2,2-diphenylethyl)-3-(3-guanidinopropyl)-2-oxo-1,4-diazepan-5-yl)methyl)-3-(thiophen-2-yl)acrylamide]
19 | < 0.1 | N=C(N)NCCC[C@@H]1N[C@H](CNC(=O)/C=C/c2ccc(Cl)cc2Cl)CCN(CC(c2ccccc2)c2ccccc2)C1=O [Compound 160, (E)-3-(2,4-dichlorophenyl)-N-(((3S,5S)-1-(2,2-diphenylethyl)-3-(3-guanidino-propyl)-2-oxo-1,4-diazepan-5-yl)methyl)acrylamide]
20 | < 10 | CCC(CC)CN1CC[C@@H](CNC(=O)c2ccc(Cl)c(F)c2)N[C@@H](CCN)C1=O [Compound 351, N-(((3S,5S)-3-(2-aminoethyl)-1-(2-ethylbutyl)-2-oxo-1,4-diazepan-5-yl)methyl)-4-chloro-3-fluorobenzamide]
21 | < 0.1 | Cc1c(C(=O)NC[C@@H]2CCN(CC(c3ccccc3)c3ccccc3)C(=O)[C@H](CCCNC(=N)N)N2)cnn1-c1ccccc1 [Compound 186, N-(((3S,5S)-1-(2,2-diphenylethyl)-3-(3-guanidinopropyl)-2-oxo-1,4-diazepan-5-yl)methyl)-5-methyl-1-phenyl-1H-pyrazole-4-carboxamide]
22 | < 0.1 | N=C(N)NCCC[C@@H]1N[C@H](CNC(=O)C2CCc3ccccc3C2)CCN(CC(c2ccccc2)c2ccccc2)C1=O (stereo partly drawn) [Compound 111, N-(((3S,5S)-1-(2,2-diphenylethyl)-3-(3-guanidinopropyl)-2-oxo-1,4-diazepan-5-yl)methyl)-1,2,3,4-tetrahydronaphthalene-2-carboxamide]
23 | < 0.1 | NCCC[C@@H]1N[C@H](CNC(=O)c2cc(-c3ccc(Cl)cc3)on2)CCN(CC(c2ccccc2)c2ccccc2)C1=O [Compound 240, N-(((3S,5S)-3-(3-aminopropyl)-1-(2,2-diphenylethyl)-2-oxo-1,4-diazepan-5-yl)methyl)-5-(4-chlorophenyl)isoxazole-3-carboxamide]
24 | < 1 | N=C(N)NCCC[C@@H]1N[C@H](CNC(=O)Cc2ccc(Cl)cc2Cl)CCN(CC(c2ccccc2)c2ccccc2)C1=O [Compound 155, 2-(2,4-dichlorophenyl)-N-(((3S,5S)-1-(2,2-diphenylethyl)-3-(3-guanidinopropyl)-2-oxo-1,4-diazepan-5-yl)methyl)acetamide]
25 | < 1 | NCCC[C@@H]1N[C@H](CNC(=O)c2cc(-c3ccccc3)n[nH]2)CCN(CC(c2ccccc2)c2ccccc2)C1=O [Compound 256, N-(((3S,5S)-3-(3-aminopropyl)-1-(2,2-diphenylethyl)-2-oxo-1,4-diazepan-5-yl)methyl)-3-phenyl-1H-pyrazole-5-carboxamide]
26 | < 1 | NCCC[C@@H]1N[C@H](CNC(=O)/C=C/c2ccc3ccccc3c2)CCN(CC(c2ccccc2)c2ccccc2)C1=O [Compound 235, (E)-N-(((3S,5S)-3-(3-aminopropyl)-1-(2,2-diphenylethyl)-2-oxo-1,4-diazepan-5-yl)methyl)-3-(naphthalen-2-yl)acrylamide]
27 | < 10 | CN(C[C@@H]1CCN(CC(c2ccccc2)c2ccccc2)C(=O)[C@H](CCCN)N1)C(=O)c1ccc2cc(Br)ccc2c1 [Compound 60, N-(((3S,5S)-3-(3-aminopropyl)-1-(2,2-diphenylethyl)-2-oxo-1,4-diazepan-5-yl)methyl)-6-bromo-N-methyl-2-naphthamide]
28 | < 1 | O=C(/C=C/c1ccc(Cl)cc1)NC[C@@H]1CCN(CC(c2ccccc2)c2ccccc2)C(=O)[C@H](CCNC(=O)CC2CCCCC2)N1 [Compound 307, (E)-3-(4-chlorophenyl)-N-(((3S,5S)-3-(2-(2-cyclohexylacetamido)ethyl)-1-(2,2-diphenylethyl)-2-oxo-1,4-diazepan-5-yl)methyl)acrylamide]
29 | < 1 | N=C(N)NCCC[C@@H]1N[C@H](CNC(=O)c2ccc3ccccc3n2)CCN(CC(c2ccccc2)c2ccccc2)C1=O [Compound 116, N-(((3S,5S)-1-(2,2-diphenylethyl)-3-(3-guanidinopropyl)-2-oxo-1,4-diazepan-5-yl)methyl)quinoline-2-carboxamide]
